# Measurements: ChEMBL document CHEMBL1201862, “PubChem BioAssay data set” (2004)
#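 Interpolation was linear, between the two tested concentrations surrounding the appropriate level; five concentrations were tested over 48 hours in 96-well plates. Abbreviation: GI50, concentration required for 50% inhibition of growth.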 Activity calls are given as the source filed them. No stated cut-off is given here; in the data, active = GI50 up to about 1.1 µM and inactive = higher.
# Tests used:
# Assay in all cases: NCI-60 cell line screen, 48 h
# K562 = tested on: K562
# OVCAR-8 = tested on: OVCAR-8
# OVCAR-3 = tested on: OVCAR-3
# CAKI-1 = tested on: CAKI-1
# U-251 = tested on: U-251
# SNB-19 = tested on: SNB-19
# CCRF-CEM = tested on: CCRF-CEM
# NCI-H226 = tested on: NCI-H226
# PC-3 = tested on: PC-3
# HOP-92 = tested on: HOP-92
# HCT-15 = tested on: HCT-15
# NCI-H522 = tested on: NCI-H522
# LOX IMVI = tested on: LOX IMVI
# SF-295 = tested on: SF-295
# UACC-62 = tested on: UACC-62
# HL-60 = tested on: HL-60
# MOLT-4 = tested on: MOLT-4
# SR = tested on: SR
# Hs-578T = tested on: Hs-578T
# COLO 205 = tested on: COLO 205
Compound,GI50 (K562),GI50 (OVCAR-8),GI50 (OVCAR-3),GI50 (CAKI-1),GI50 (U-251),GI50 (SNB-19),GI50 (CCRF-CEM),GI50 (NCI-H226),GI50 (PC-3),GI50 (HOP-92),GI50 (HCT-15),GI50 (NCI-H522),GI50 (LOX IMVI),GI50 (SF-295),GI50 (UACC-62),GI50 (HL-60),GI50 (MOLT-4),GI50 (SR),GI50 (Hs-578T),GI50 (COLO 205)
c1ccc(CCN(Cc2nc3ccccc3[nH]2)Cc2nc3ccccc3[nH]2)cc1,2.86 µM (inactive),6.18 µM (inactive),20.2 µM (inactive),3.85 µM (inactive),6.59 µM (inactive),16.2 µM (inactive),3.39 µM (inactive),27.6 µM (inactive),11.5 µM (inactive),12.5 µM (inactive),7.45 µM,17 µM (inactive),10.1 µM (inactive),14.8 µM (inactive),13.4 µM (inactive),2.41 µM (inactive),6.59 µM (inactive),9.27 µM (inactive),20.2 µM (inactive),13.4 µM (inactive)
CCOC(=O)/C=C(/C(=O)OCC)n1ccc(=O)[nH]c1=O,2.23 µM (inactive),13 µM (inactive),3.59 µM (inactive),0.938 µM (active),13.5 µM (inactive),15.4 µM (inactive),1.14 µM (inactive),6 µM (inactive),13.8 µM (inactive),2.07 µM (inactive),3.08 µM,0.726 µM (active),7.48 µM (inactive),18.7 µM (inactive),11.8 µM (inactive),1.78 µM (inactive),2.25 µM (inactive),4.36 µM (inactive),17.9 µM (inactive),1.65 µM (inactive)
CN1CCc2c(sc3nc(S)nc(S)c23)C1,> 100 µM (inactive),> 100 µM (inactive),> 100 µM (inactive),> 100 µM (inactive),72.4 µM (inactive),> 100 µM (inactive),> 100 µM (inactive),> 100 µM (inactive),> 100 µM (inactive),> 100 µM (inactive),> 100 µM,> 100 µM (inactive),> 100 µM (inactive),> 100 µM (inactive),> 100 µM (inactive),> 100 µM (inactive),> 100 µM (inactive),> 100 µM (inactive),> 100 µM (inactive),> 100 µM (inactive)
C/C(=N\NC(=N)N)C(CN(C)C)C(c1ccccc1)c1c(O)c2ccccc2oc1=O (centres undefined),> 100 µM (inactive),> 100 µM (inactive),> 100 µM (inactive),> 100 µM (inactive),> 100 µM (inactive),> 100 µM (inactive),> 100 µM (inactive),> 100 µM (inactive),> 100 µM (inactive),4.91 µM (inactive),> 100 µM,> 100 µM (inactive),> 100 µM (inactive),> 100 µM (inactive),> 47.6 µM (inactive),> 100 µM (inactive),> 100 µM (inactive),> 100 µM (inactive),> 100 µM (inactive),> 100 µM (inactive)
CN1CCc2c(sc3ncn(N)c(=N)c23)C1,> 100 µM (inactive),> 100 µM (inactive),> 100 µM (inactive),> 100 µM (inactive),> 100 µM (inactive),> 100 µM (inactive),36.1 µM (inactive),78.9 µM (inactive),> 100 µM (inactive),> 100 µM (inactive),> 100 µM,45.7 µM (inactive),> 100 µM (inactive),> 100 µM (inactive),> 100 µM (inactive),> 100 µM (inactive),> 100 µM (inactive),63.8 µM (inactive),> 100 µM (inactive),
